The test system of experiment [1] is γH2AX and EGFP-SNM1A foci in U2OS cells. Kind of experiment: microscopic analysis of damage-induced subnuclear foci, U2OS cells expressing EGFP-SNM1A. It counts as cell-based, human. As for the experimental part:
To this end, cells stably expressing N-terminally EGFP-tagged SNM1A (EGFP-SNM1A) were treated with 50 μM cisplatin alone, 19 (50 μM), or with a combination of both compounds. It is known that on treatment of cells with DNA crosslinking agents, SNM1A forms subnuclear foci that are associated with ongoing sites of DNA repair.[37] […] As previously established, cisplatin treatment efficiently induces co-localisation of EGFP-SNM1A foci and γH2AX foci within 4 hours following treatment, marking sites of cisplatin damage and its repair (Fig. 6C–E). These largely resolved 24 hours post-treatment, again consistent with previous studies.[16,37] Co-treatment of cells with 19 and cisplatin saw a robust induction of SNM1A foci, consistent with the SNM1A activity being dispensable for its localisation to sites of crosslink repair, and γH2AX foci formation (Fig. 6C–E). […] This clear persistence of repair intermediates and trapping of EGFP-SNM1A at the sites of these repair intermediate implies that 19 engages with SNM1A in a cellular context, delaying the completion of cisplatin crosslink repair, which, in turn, results in the sensitisation of cells to cisplatin.
To assess the number of nuclear foci following cisplatin/inhibitor treatments, cells were plated in glass bottom dishes (as above) and allowed to attach. Following treatment, cells were fixed with 4% (v/v) formaldehyde in PBS, blocked with immunofluoresence (IF) blocking buffer (5% horse serum, 1% saponin in PBS) for 1 h, then incubated with primary antibodies at the desired concentrations in IF blocking buffer (overnight, 4 °C). After washing cells three times with PBS, cells were incubated with secondary antibodies for 2–4 hours in IF blocking buffer, washed a further 3 times with PBS then stained with Hoechst 333 258 (1 μg mL^−1 in PBS) for 30 minutes before a further three washes (all washes and incubations were performed at room temperature, unless otherwise stated).
Confocal images were obtained with a Plan APO 63X 1.40NA oil immersion objective, a pinhole setting of 1 AU, bandpass emission settings of 410–468 nm for Hoechst, 490–544 nm for EGFP, 579–624 nm for RFP or Alexa 568, and 633–695 nm for Alexa 647, a projected pixel dimension of around 110 nm × 110 nm, a pixel dwell time of 1.35 μs, and with a line averaging setting of 2. In order to ensure sufficient cell numbers (N > 300), images were acquired in a tiled 5 × 5 format corresponding to an image area of about 0.65 mm × 0.65 mm. Images were imported into ImageJ and foci were counted using a macro adjusting for staining levels between experiments. Anti-γH2AX antibodies were a mouse monoclonal (Millipore; JBW301).

The subject of experiment [2] is γH2AX foci in RPE-1 cells. Briefly: microscopic analysis of damage-induced subnuclear foci, RPE-1 cells. In kind it is cell-based, human. The method, then:
To assess the number of nuclear foci following cisplatin/inhibitor treatments, cells were plated in glass bottom dishes (as above) and allowed to attach. Following treatment, cells were fixed with 4% (v/v) formaldehyde in PBS, blocked with immunofluoresence (IF) blocking buffer (5% horse serum, 1% saponin in PBS) for 1 h, then incubated with primary antibodies at the desired concentrations in IF blocking buffer (overnight, 4 °C).
Images were imported into ImageJ and foci were counted using a macro adjusting for staining levels between experiments. Anti-γH2AX antibodies were a mouse monoclonal (Millipore; JBW301).

Experiment [3] addresses T1, SNM1A (Homo sapiens, UniProt Q6PJP8).
T1 sequence (Q6PJP8 676-1040): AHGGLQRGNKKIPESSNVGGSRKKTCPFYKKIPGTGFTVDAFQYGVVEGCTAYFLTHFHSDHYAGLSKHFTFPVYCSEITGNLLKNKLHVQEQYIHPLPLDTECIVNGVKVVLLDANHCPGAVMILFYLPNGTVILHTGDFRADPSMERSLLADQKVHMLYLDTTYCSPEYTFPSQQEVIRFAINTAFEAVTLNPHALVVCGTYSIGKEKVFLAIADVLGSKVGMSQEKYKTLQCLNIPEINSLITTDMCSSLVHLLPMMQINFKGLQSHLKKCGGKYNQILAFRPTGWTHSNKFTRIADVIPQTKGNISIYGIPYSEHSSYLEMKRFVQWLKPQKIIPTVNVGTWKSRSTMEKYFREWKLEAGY
Briefly: gel-based nuclease assay, SNM1A. In kind it is biochemical. Details: DNA encoding for the MBL and β-CASP domains of SNM1A (aa 676–1040) was cloned into the baculovirus transfer vector pFB-LIC-Bse; inferred from vector pFB-LIC-Bse and the IMAC purification; made in house; host or cells: Sf9 insect cells (baculovirus). An excerpt: To validate the inhibition of SNM1A, SNM1B, and SNM1C observed in the fluorescence-based screening assays, we then performed gel-based assays using 3′ terminally-labelled oligonucleotide substrates that enable both quantitative and qualitative (visual) assessment of the pattern of inhibition, for a subset of compounds. Importantly, whereas the fluorescence-based assay measures a single hydrolytic event at the substrate terminus, the gel-based nuclease assay informs on the pattern of digestion of the entire 51-mer substrate DNA over time.
Standard exonuclease assays were carried out in a 10 μL final volume containing 20 mM HEPES-KOH, pH 7.5, 50 mM KCl, 0.5 mM TCEP, 10 mM MgCl2, 0.05% (v/v) Triton X-100, 5% (v/v) glycerol, and SNM1 proteins as indicated. Inhibitors were dissolved in DMSO and diluted immediately prior to the reaction in the above buffer. Inhibitors were serially diluted two-fold from 100 μM. The DMSO concentration was kept constant at 0.1% (v/v) in the final reaction mixture. Inhibitors were incubated with the indicated SNM1 enzyme for 10 minutes at room temperature; reactions were initiated by addition of 10 nM DNA substrate and incubated at 37 °C for 20 min. Reactions were quenched by addition of 5 μL stop solution (95% formamide, 10 mM EDTA, 0.25% (v/v) xylene cyanol, 0.25% (v/v) bromophenol blue) and heated at 95 °C for 3 min. Reactions were analysed by 20% denaturing polyacrylamide gel electrophoresis solution of 19 : 1 acrylamide:bis-acrylamide, BioRad and 7 M urea (Sigma Aldrich) in 1 × TBE (Tris-borate EDTA) buffer. Electrophoresis was carried out at 525 V for 75 minutes; gels were subsequently fixed for 60 minutes in a 50% (v/v) methanol, 10% (v/v) acetic acid solution, and dried at 80 °C for two hours under vacuum. Dried gels were exposed to a Kodak Phosphor imager screen and scanned using a Typhoon 9500 instrument (GE Healthcare), scanned images were quantified using ImageJ.

Like-named read-outs stand apart in the source and are kept apart here.

Results on one compound are retold here after article PMC11134331, “Cell-active small molecule inhibitors validate the SNM1A DNA repair nuclease as a cancer target” (Chemical Science, 2024).

The IC50 is the concentration at which inhibition is half-maximal.

On to `C[C@H](Nc1nc(NCc2ccco2)nc2ccc(Cl)cc12)C(=O)NO` [compound 19], for which, in experiment [1] (U2OS EGFP-SNM1A, 50 μM compound + 50 μM cisplatin), the “EGFP-SNM1A and γH2AX foci on co-treatment with cisplatin” value was “persisted at 24 hours”. In addition, the “induction of EGFP-SNM1A and γH2AX foci by compound alone” value in experiment [1] (U2OS EGFP-SNM1A, 50 μM compound alone) is on record as “did not induce”. Further, the “average number of γH2AX foci at 24 hours” value in experiment [1] (U2OS, cisplatin treated with pretreatment with 50 μM 19) came to 81.6 ± 1.7 foci. The “increase of average γH2AX foci number following pretreatment” value in experiment [1] (U2OS, cisplatin treated, 24 hours) is 4 fold. Besides, the “average γH2AX foci count at 24 hours” value in experiment [2] (RPE-1, cisplatin treated with 50 μM 19) is 21.2 ± 0.7 foci. Moreover, in experiment [2] (RPE-1, cisplatin treated, 24 hours), the “increase of average γH2AX foci count following pretreatment” value was 2 fold. Also, in experiment [3] (0.5 nM SNM1A), the “inhibition of SNM1A in gel-based assay” value is “inhibits each of SNM1A–C”. In addition, the 50% inhibitory concentration (IC50) in experiment [3] (Suppl. Figure 11C, three independent experiments, read-out: SNM1A IC50 estimated from densitometric analysis of gel based assays) is 7.6 µM; in experiment [3] (direct quantification of ratio between intact substrate and digestion product, read-out: SNM1A IC50 estimated from gel-based assay), roughly 8 µM.
